Data set [1] deals with platelet aggregation. Kind of data set: Platelet aggregation in vitro, whole blood impedance aggregometry (Multiplate). The class given is cell-based, healthy donor. Particulars: 3 × 10^−4. How it is done: Platelet aggregation was studied using whole blood impedance aggregometry on Multiplate (Multiple Platelet Function Analyzer, Dynabyte Medical, Germany) (Toth O et al, Thromb Haemost 2006; 96:781-788. […] Blood samples for in vitro experiment were collected from healthy donor B. […] In the ex vivo experiment blood was collected into plastic tubes covered with hirudin (Dynabyte Medical, Germany) from narcotized rats that were treated for 3 previous days with test substances p.o. The measurements were performed according to modified Dynabyte Medical protocol. […] After 5 min incubation and stirring at 37° C., measurements were initiated by adding of the appropriate agonist solution (sourced from Dynabyte Medical, Germany): 1) adenosine diphosphate (ADP)-ADP-Test. ADP stimulates platelet activation by the ADP receptors (P2Y 12 and other). […] 3) ADP HS test (prostaglandin E1 in combination with ADP). […] Aggregation curves were recorded for 6 min. and analyzed using Dynabyte Medical software. We calculated the following parameters of platelet aggregation: […] It is affected by the total height of the aggregation curve as well as by its slope and is best suited to express the overall platelet activity.

The next data set concerns rat ear skin temperature. The experiment in a line: Ear skin temperature rise caused by NA, s.c. administration. It is filed as in vivo, Wistar rats. Particulars: LA 0.3 mg/kg s.c. alone. On the procedure: Male Wistar rats (280-330 g) were used. Animals were held in groups of 6 in climatized rooms at 22±1° C., relative humidity 60±5%, and 12/12-hour light/dark cycle with free access to drinking water and feed (R3—Lactamin AB, Sweden). For registration of changes in skin temperature of intact rats contactless temperature recording method was used (Papaliodis D et al, Br J Pharmacol 2008; 153:1382-1387). Temperature measurements were performed with a hand-held infrared thermometer (Model Proscan 510, TFA-Dostman). Animals were habituated to handling and to the infrared probe for 3 days before use. Temperature readings from the dorsal side of each ear were recorded without anaesthesia at beginning and during experiment. The ear temperature was measured every 5 min. for a period of up to 60 min. The animals were returned to their cages between measurements. NA, MD and MASA were dissolved in saline and pH was corrected immediately before usage. LA (MK 0524, Cayman Chemicals) was first dissolved in DMSO and then freshly diluted with 0.9% NaCl, on each day of the experiment. The rate of NA and LA combination was based on Summary of Product Characteristics for Tredaptive™ (nicotinic acid/laropiprant) 1000 mg/20 mg modified-release tablets.
The influence of LA, MD or MASA alone on skin temperature was checked. Each investigated compound was introduced s.c. simultaneously with NA as LA+NA [0] or 30 min in advance to NA as LA+NA [30].

For data set [2], the system named is FeCl3 induced carotid artery thrombosis. Kind of data set: FeCl3 induced carotid artery thrombosis, time till occlusion. The class given is in vivo, Wistar rats. Particulars: for Time till occlusion, %: control = 100. The source says: We chose an experimental thrombosis model based on rat arterial thrombosis induced by FeCl3 (Kurz K et al, Thromb Res 1990, 60:269-280. Wang X, Xu L, Thromb Res 2005,115:95-100). Tissue damage initiated by iron-mediated chemical oxidation predisposes the injured area to platelet adherence and aggregation followed by coagulation activation and fibrin deposition. Male Wistar rats with mass 350-420 g were used in experiments. Animals were kept in groups of 7-8 in adequate cages in climatized room at 22±1° C., relative humidity 60±5% and 12/12-hour light/darkness cycle with free access to feed and water. All experiments were carried out in accordance with the European Community Council's Directive of 24 Nov. 1986 (86/609/EEC) relative to experimental animal care. All efforts were made to minimize animal suffering and to reduce the number of animals used. Rats were randomly divided into various experimental groups, each consisting of not less than seven animals. The vehicle or test compound MD (25 mg/kg), NA (25 mg/kg), MASA (10 mg/kg), ASA (5 mg/kg) and combination MD+NA (25+25 mg/kg), MASA+NA (10+25 mg/kg) and ASA+NA (5+25 mg/kg) was administered by oral route 2 h before the initiation of thrombosis. Parallel experiments were conducted to compare the effects of a single dose of test substance (given 2 h before the initiation of thrombosis) and repeated doses (once daily for 3 days). […] Rats were anaesthetized with pentobarbital sodium (50 mg/kg, i.p. and 10 mg/kg/h) and were placed on a heat controlled operating table throughout the experiment to maintain a body temperature of 37° C. One of the carotid arteries was exposed by cervical incision, separated from the adherent tissue, vagus nerve, and a flow probe (electromagnetic blood flow meter MFV 1200, Nicon Kohden, Japan) was placed on the exposed segment of common carotid artery to record the blood flow. After a stabilization period of 15 min, thrombosis was induced by topically applying (in contact with the adventitial surface of vessel) two pieces (2×1 mm) of Whatman filter paper, soaked in 15% solution of FeCl3. Thrombosis time of carotid artery was recorded as time taken for the complete cessation of the blood flow and has been reported as time till occlusion (TTO).

A further data set concerns tail bleeding. The experiment in a line: Tail bleeding time during thrombosis experiment. The class given is in vivo, rats. The conditions noted are these: for Tail bleeding time, %: control = 100. On the procedure: Additionally during the thrombosis experiment rat tail bleeding time was measured. The tail was transected 5 mm from the tip with scalpel and the tail was immediately immersed into 37° C. warm isotonic saline until termination of bleeding was noted. Termination of bleeding was defined as the time of complete stop of bleeding with no recurrence of bleeding within the next 30 s.

The subject of data set [3] is platelet aggregation. Kind of data set: Platelet aggregation ex vivo after 3 days treatment. It is filed as in vivo, rats. Particulars: 5 mg/kg/d p.o. 3 days. On the procedure: Platelet aggregation was studied using whole blood impedance aggregometry on Multiplate (Multiple Platelet Function Analyzer, Dynabyte Medical, Germany) (Toth O et al, Thromb Haemost 2006; 96:781-788. […] Blood samples for in vitro experiment were collected from healthy donor B. […] In the ex vivo experiment blood was collected into plastic tubes covered with hirudin (Dynabyte Medical, Germany) from narcotized rats that were treated for 3 previous days with test substances p.o. The measurements were performed according to modified Dynabyte Medical protocol. […] After 5 min incubation and stirring at 37° C., measurements were initiated by adding of the appropriate agonist solution (sourced from Dynabyte Medical, Germany): After the thrombosis experiment the narcotized animals who received test substances for 3 days were used for platelet aggregation test ex vivo. […] Blood samples were used for measurement between 30 min and 4 h after collection. The measurements were performed according to modified Dynabyte Medical protocol (see above under Platelet aggregation).

Data set [4] can be described thus: Stability at ambient conditions.
The mark [5] stands for this setting: 5 mg/kg/d p.o., repeated, 3 days.

The source of these data is patent publication US8889902B2, “Acetylsalicylic acid salts” (priority 2009, dated 2014).

SMILES strings stand for the structures.

Turning to `OCCN(CCO)c1nc(N2CCCCC2)c2nc(N(CCO)CCO)nc(N3CCCCC3)c2n1` [DI, dipyridamole], in the data set with platelet aggregation [1] (AA induced), the AUC is 1104 ± 45.5^&@@ AU*min and the Amax is given as 173.9 ± 5.2^&@@ AU. For the same molecule, in the data set with platelet aggregation [1] (ADP induced), the AUC was 665 ± 44.1^2& AU*min and the Amax is 111.1 ± 6.9^2& AU.

Consider `CS(=O)(=O)c1cc(F)cc2c3c(n(Cc4ccc(Cl)cc4)c12)[C@@H](CC(=O)O)CC3` [LA, laropiprant], for which the Maximum temperature in the data set on rat ear skin temperature is given as 29.5 ± 0.35^$$$ ° C.

Consider `COC(=O)[C@H](c1ccccc1Cl)N1CCc2sccc2C1` [CL, clopidogrel], for which the Time till occlusion in data set [2] (5 mg/kg p.o., single dose 2 h before) is reported as 31.7 ± 2.40^1 min; in data set [2] (setting [5]), 49.1 ± 7.75^1 min. Besides, the “Time till occlusion, %” value in data set [2] (5 mg/kg p.o., single dose) is listed as 130%; in data set [2] (setting [5]), 194%. Further, the Tail bleeding time in the data set with tail bleeding (5 mg/kg p.o., single dose) was 11.9 ± 3.62 min; with tail bleeding (setting [5]), 18.3 ± 3.78^1 min. Further, the “Tail bleeding time, %” value in the data set on tail bleeding (5 mg/kg p.o., single dose) is on record as 134%; in the data set with tail bleeding (setting [5]) it was 213%. The AUC is given as 905 ± 53.5^& AU*min with platelet aggregation [3] (AA induced), 423 ± 39.4^2& AU*min in the data set with platelet aggregation [3] (ADP induced) and 259 ± 49.3^2& AU*min with platelet aggregation [3] (PGE1 + ADP induced). Besides, the figures for the Amax with platelet aggregation [3] (AA induced), in the data set with platelet aggregation [3] (ADP induced) and in the data set with platelet aggregation [3] (PGE1 + ADP induced) were 160.7 ± 13.5^&@ AU, 68.2 ± 15.1^2& AU and 49.7 ± 9.9^3&& AU, respectively.

Turning to `CC(=O)Oc1ccccc1C(=O)[O-].C[N+](C)(C)CCCC(=O)O` [Example 1, 4-trimethylammoniobutanoate Acetylsalicylic Acid Addition Salt], the “solubility in water (in words)” value in the data set “Solubility in water” was “water soluble”. In addition, the “stability (in words)” value in data set [4] is reported as “stable at ambient conditions”.
